In PubChem BioAssay (NCI):
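Method: 48-hour compound exposure of cells in 96-well plates, five concentrations, linear interpolation of endpoints. GI50: concentration for 50% inhibition of growth. TGI marks complete inhibition of growth.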

Key:
Assay in all cases: inhibition of tumour cell growth, NCI panel, 48 h
MDA-MB-435 = tested on: MDA-MB-435
SR leukemia = tested on: SR leukemia
IGROV1 ovarian = tested on: IGROV1 ovarian
SNB-19 CNS = tested on: SNB-19 CNS
CCRF-CEM leukemia = tested on: CCRF-CEM leukemia
NCI/ADR-RES ovarian = tested on: NCI/ADR-RES ovarian
BT-549 breast = tested on: BT-549 breast
HS 578T breast = tested on: HS 578T breast
MDA-MB-231 breast = tested on: MDA-MB-231 breast
HCC-2998 colon = tested on: HCC-2998 colon

SMILES	TGI (MDA-MB-435)	TGI (SR leukemia)	TGI (IGROV1 ovarian)	TGI (SNB-19 CNS)	TGI (CCRF-CEM leukemia)	TGI (NCI/ADR-RES ovarian)	TGI (BT-549 breast)	TGI (HS 578T breast)	TGI (MDA-MB-231 breast)	TGI (HCC-2998 colon)	GI50 (SR leukemia)	GI50 (HS 578T breast)
O=C(O)C1CC(C2CCCCN2)CN2CCCCC12 (configuration not stated)	> 100 µM	> 100 µM	> 100 µM	> 100 µM	> 100 µM	> 100 µM	> 100 µM	> 100 µM	> 100 µM	> 100 µM		
C[C@@H](Oc1ccc(Oc2cnc3ccc(Cl)cc3n2)cc1)C(=O)O	> 100 µM	> 100 µM	> 100 µM	> 100 µM	> 100 µM	> 100 µM	> 100 µM	> 100 µM	> 100 µM	> 100 µM	> 24.3 µM	69.6 µM
CC(C)C1CC(CO)(CNc2nc(N)nc(Cl)c2/C=N\O)C1 (configuration not stated)	28.9 µM	> 54.2 µM	50.1 µM	> 100 µM	> 79.2 µM	27.5 µM	28.7 µM	53.8 µM	31.6 µM	17.8 µM		
COc1ccc(-c2[nH]c(-c3ccc(OC)cc3)c(-c3ccccn3)c2-c2ccccn2)cc1	> 100 µM	> 100 µM	> 100 µM	> 100 µM	> 100 µM	> 100 µM	99.9 µM	> 100 µM	> 100 µM	46.3 µM		
COC(=O)[C@H](C)NC(=O)C1(CNC(=O)[C@H](C)NC(=O)OC(C)(C)C)Cc2ccccc2-c2ccccc2C1	38.2 µM	43.4 µM	33.2 µM	> 100 µM	43.9 µM	41.4 µM	> 70.3 µM	> 60.1 µM	35.4 µM	> 59.8 µM		
Cc1nn(C(=O)c2ccc(Cl)cc2)c2c1C(c1ccccc1O)SC(N)=N2 (configuration not stated)	> 10 µM	> 10 µM	> 10 µM	> 10 µM	> 10 µM	> 10 µM	> 10 µM	> 10 µM	> 10 µM	> 10 µM		
COc1ccc(C(=O)N2CCN(c3ccc4c(c3)OCC(=O)N4)CC2)cc1OC	> 100 µM	> 100 µM	> 100 µM	> 100 µM	> 100 µM	> 100 µM	> 100 µM	> 100 µM	> 100 µM	> 100 µM		
CCOC(=O)c1cc(C2=CCNC2=O)c(-c2cc(C)no2)[nH]1	> 100 µM	> 100 µM	> 100 µM	> 100 µM	> 100 µM	> 100 µM	> 100 µM	> 100 µM	> 100 µM	> 100 µM		
C/C(=N\Nc1nc2ccccc2o1)c1ncccn1	23.4 µM	0.228 µM	1.16 µM	> 100 µM	0.0584 µM	< 0.0335 µM	34.8 µM	> 61 µM	21.5 µM	20.7 µM		
O=C(NNC(=S)Nc1ccc(Cl)cc1)C12CC3CC(CC(C3)C1)C2	37.8 µM	4.83 µM	33.1 µM	> 79.2 µM	11.6 µM	14.8 µM	39.4 µM	83 µM	19.6 µM	27 µM		
O=C1C=CC(=O)c2c(O)c(NCCO)c(Cl)c(O)c21	4.23 µM	> 6.94 µM	5.63 µM	> 10 µM	> 10 µM	> 10 µM	> 5.74 µM	> 10 µM	6.37 µM	> 7.21 µM		
O=C(CCc1ccc(O)c(O)c1)NCCc1ccccc1	29.3 µM	47.5 µM	> 100 µM	> 100 µM	> 90.8 µM	> 100 µM	> 89.1 µM	> 100 µM	> 63.8 µM	> 100 µM		
Cc1ccc(NC(=O)CC(=O)N2N=C(N3CCCCC3)CC2c2ccccc2)cc1 (configuration not stated)	> 100 µM	> 100 µM	> 100 µM	> 100 µM	> 100 µM	> 100 µM	> 100 µM	> 100 µM	> 100 µM	> 100 µM		
Cc1n[nH]c(=O)n1Nc1ccccc1	> 100 µM	> 100 µM	> 100 µM	> 100 µM	> 100 µM	> 100 µM	> 100 µM	> 100 µM	> 100 µM	> 100 µM		
O=C(CC(Cc1ccccc1)c1ccc(Oc2ccccc2)cc1)Nc1cccc(Cl)c1 (configuration not stated)	> 100 µM	47.5 µM	16.3 µM	> 100 µM	21 µM	38.3 µM	75.9 µM	> 100 µM	53.8 µM	31.8 µM		
CC1(c2nc3ccccc3[nH]2)CCC(C#N)C(C)(C)O1 (configuration not stated)	> 100 µM	> 100 µM	> 100 µM	> 100 µM	> 100 µM	> 100 µM	> 100 µM	> 100 µM	> 100 µM	> 100 µM		
